Measurements as given in patent US20210283087A1, “METHOD FOR TREATING AND RELIEVING MYOPIA” (China Medical University, priority 2014, published 2021).

Tests used:
MMP2 = test: Gelatin zymography of MMP2 activity in LPS-activated scleral fibroblasts and ARPE-19 cells; format: cell-based; conditions: LPS + 100 μM atropine or LPS + 50 μM diacerein; 48 hours
Method: To facilitate subsequent analysis, 1×10^6 cells were seeded in 24-well plates for at least 12 hours. […] To measure the MMP-2/MMP-9 activities, samples were separated using 8% SDS-PAGE containing 0.1% gelatin.

[1] = system: LEWIS rats, right eye induced myopia by FDM; test: Refractive error and axial length in FDM myopia LEWIS rats (diclofenac); format: in vivo
Method: Four weeks LEWIS rats were used in this example. […] The refractive error and axial length of right eye were measured by refractometer within three weeks and recorded in Table 14.

[2] = system: sclera and retina of hamster eyes; test: Immunohistochemical analysis of COL1, TGF-β, TNF-α in resveratrol-treated hamster eyes; format: in vivo; conditions: 100 mM resveratrol
Method: […] Antigen retrieval was performed by boiling the slides in citrate buffer (pH 6.0); the sections were then stained with antibodies against IL-6, TNF-α, TGF-β, MMP2, c-Fos, NF-κB, and CHRM1 and 3. The EnVision System peroxidase kit (DAKO, Carpentaria, Calif., USA) was used to visualize immunoreactivity.

[3] = system: Human retinal pigment epithelium; test: Western blot of phosphorylated Akt and ERK after LPS in human retinal pigment epithelium; format: cell-based; conditions: 50 μM resveratrol pretreatment, then 500 ng/ml LPS
Method: Human retinal pigment epithelium was administrated 500 ng/ml LPS for 30 minutes to observe the expression of Akt and ERK.

[4] = system: MFD-induced myopia in hamster; test: Effect of resveratrol on MFD-induced myopia in hamster (refractometer); format: in vivo; conditions: for Diopter, left eye (mean ± SD) / Diopter, right myopic eye (mean ± SD): 21 days
Method: 0.1141 g resveratrol (purchased from Sigma Aldrich Co.) powder was dissolved in 6 ml of ethanol to obtain resveratrol liquid. 1.46 g β-cyclodextrin (purchased from Sigma Aldrich Co.) was dissolved in 2 ml of sterile water to obtain a β-cyclodextrin solution (as a co-solvent); resveratrol liquid and β cyclodextrin were mixed in mole number of 1:2 by slowly adding dropwise β cyclodextrin solution into resveratrol liquid to form a mixture. The mixture was frozen drained, and then 5 ml artificial tears were added (purchased from Alcon company) to be re-dissolved to obtain 100 mM resveratrol solution. Resveratrol solution can be diluted by fetal bovine serum medium or artificial tears for various embodiments.
The refractive powers of hamsters were measured before experiment by refractometer (in China Medical University Hospital Department of Ophthalmology). The hamsters were administered artificial tears (referred to as control group) or various concentrations (3 mM, 30 mM, 100 mM) of resveratrol (experimental group) for five hamsters each group. The right eyes of the hamsters of each group were stitched; after 21 days, the stitches were all removed and then the refractive powers of each hamster were measured.

[5] = system: monocyte chemoattractant protein-1 (MCP-1); test: LPS-induced MCP-1 expression in human retinal pigment epithelial cells; format: cell-based; conditions: 50 μM resveratrol and 1 μg/ml LPS for 24 hours
Method: Human retinal pigment epithelial cells were as model cells under LPS stimulation for 24 hours to induce inflammation and monocyte chemoattractant protein-1 (MCP-1), and then resveratrol was administered to detect the effect of suppressing inflammatory response.

Syrian hamster = test: Refractive power of hamsters without MFD after LPS or PGN; format: in vivo; conditions: for Refractive power, BL: left eye before treatment / Refractive power, BR: right eye before treatment: LPS or PGN group, baseline; for Refractive power, FL: left eye after treatment / Refractive power, FR: right eye after treatment / Refractive error FL-BL / Refractive error FR-BR: LPS or PGN; for Refractive power, FL: left eye after treatment / Refractive power, FR: right eye after treatment: 21 days; for Refractive error FL-BL: left eye; for Refractive error FR-BR: right eye
Method: (§1) The RE (i.e., spherical-component RE, which is defined as the mean RE in horizontal and vertical meridians) was measured using a hand-held streak retinoscope. Animals were anesthetized with 10% ether in O2. Ocular refraction was evaluated at the start and end of the experiment. At the end of the study, animals were sacrificed through CO2 asphyxiation according to the guidelines of the Public Health Service, Office of Laboratory Animal Welfare, National Institutes of Health, and American Association of Veterinary Medicine. Eyes were enucleated using a razor blade on an ice plate under a surgical microscope (Topcon, Tokyo, Japan) by cutting perpendicularly to the anterior-posterior axis approximately 1 mm posterior to the ora serrata. The iris and ciliary body of the anterior segment of the eye were separated. Posterior sclera was excised using a 7-mm-diameter trephine. The axial lengths were determined through A-scan ultrasonography (PacScan 300 Plus, NY, USA). The average of 10 unique measurements was used.
To further test this possibility, LPS and PGN were applied to the eyes of hamsters without MFD.

Sclera fibroblast = test: Gene expression by real-time PCR in LPS-treated primary scleral fibroblasts; format: cell-based, hamster; conditions: sclera fibroblast; 100 ng/ml LPS for 4 hours
Method: (§2) R28 rat retinal epithelial cells were provided by Gail Seigel at the Ross Eye Institute (SUNY, Buffalo, N.Y., USA). The cells were cultured in Dulbecco's modified Eagle's medium (DMEM) with 10% fetal bovine serum (FBS) at 37° C. and 5% CO2, with medium replacement every 3 days to 4 days. Sclera were placed in a 60-mm culture dish in DMEM supplemented with 10% FBS to isolate primary scleral fibroblasts; those from fewer than three passages were used in experiments. […] Cell lysates were collected for quantitative (q)PCR to determine gene expression levels.
(§3) Total RNA was extracted using the RNeasy MiniKit (Qiagen, Valencia, Calif., USA), and 5 μg of RNA was reverse-transcribed to cDNA by using the Superscript First Strand Synthesis system (Invitrogen, Carlsbad, Calif., USA). Primers and probes used for qPCR were selected from the Universal Probes Library (Roche, West Sussex, UK). Transcript levels were normalized to those of glyceraldehyde 3-phosphate dehydrogenase in each sample.

[6] = system: monocular form deprivation (MFD) Syrian hamster; test: Refractive power in monocular form deprivation (MFD) hamster model, streak retinoscope; format: in vivo, golden Syrian hamsters; conditions: for Myopia in the non-MFD eye: LPS and PGN but not PBS treatment; for Refractive power, BL: left eye before MFD / Refractive power, BR: right eye before MFD: LPS or PGN group, baseline; for Refractive error FR-BR / Refractive error FL-BL: LPS or PGN; for Refractive error FR-BR: MFD right eye; for Refractive error FL-BL: non-MFD left eye
Method: In this study, a total of 160 golden Syrian hamsters aged 3 weeks, weighing 80 to 90 g, and 20 albino guinea pigs, aged 2 to 3 weeks, were used for experiments. All animals were kept in a 12-hour light/dark cycle. All procedures were approved by the Institutional Animal Care and Use Committee of China Medical University and were conducted in accordance with the guidelines of the Use of Animals in Ophthalmic and Vision Research. Hamsters were raised with a right eyelid fusion for 21 days. Myopia was induced in the guinea pigs by covering the right eye with a cloth attached to the skin at a distance of at least 1 cm from the eye. MFD was induced in the right eye (with the left eye serving as a control) of animals randomly assigned to treatment or control groups (n=10 animals each) receiving daily applications of drug or phosphate-buffered saline (PBS), respectively, to both eyes.
as §1

[7] = system: sclera and retina of hamster eyes; test: Immunohistochemistry of hamster eyes (sclera, retina); format: in vivo; conditions: for c-Fos and NF-κB expression / MMP2 and TGF-β expression / TGF-β and MMP2 expression: LPS or PGN; for IL-10 and TNF-α levels: LPS or PGN treatment; for MMP2 and TGF-β expression: MFD hamsters; for TGF-β and MMP2 expression: hamsters without MFD
Method: Antigen retrieval was performed by boiling the slides in citrate buffer (pH 6.0); the sections were then stained with antibodies against IL-6, TNF-α, TGF-β, MMP2, c-Fos, NF-κB, and CHRM1 and 3. The EnVision System peroxidase kit (DAKO, Carpentaria, Calif., USA) was used to visualize immunoreactivity.

Retinal cell (R28) = test: Gene expression by real-time PCR in LPS-treated R28 retinal cells; format: cell-based, rat; conditions: R28; 100 ng/ml LPS for 4 hours
Method: as §2, §3

[8] = system: monocular form deprivation (MFD) Syrian hamster; test: Refractive power in monocular form deprivation (MFD) hamster model, streak retinoscope; format: in vivo, golden Syrian hamsters; conditions: LPS or 500 ng/mL PGN every second day for 21 days
[9] = 3 × diclofenac (3 mg/ml solution), right eye, three weeks, mean ± standard error

Compound: CC(=O)Oc1cccc2c1C(=O)c1c(OC(C)=O)cc(C(=O)O)cc1C2=O [diacerein]
- MMP2 activities in cells activated by LPS (MMP2): decreased

Compound: O=C(O)Cc1ccccc1Nc1c(Cl)cccc1Cl [diclofenac]
- Inhibitory effect on myopia, comparison of concentrations ([1]; 3 mg/ml vs 6 mg/ml): better in the concentration of 3 mg/ml than in 6 mg/ml
- Δ Axial length [1, 9]: 1.04 ± 0.39 mm
- Δ Refractive error [1, 9]: 5.36 ± 4.05 D
- Δ Axial length ([1]; 6 × diclofenac (6 mg/ml solution), right eye, three weeks, mean ± standard error): 1.24 ± 0.55 mm
- Effect on myopia process ([1]; diclofenac solution 3 mg/ml and 6 mg/ml): significant inhibitory effect

Compound: Oc1ccc(C=Cc2cc(O)cc(O)c2)cc1 [resveratrol]
- TNF-α expression in the retina [2]: follows the same trend as TGF-β
- Collagen I protein expression in the sclera ([2]; stitched right eye): recovered
- TGF-β expression in the retina ([2]; stitched right eye): reduction effect
- Expression of phosphorylated Akt and ERK [3]: decrease
- Diopter, left eye (mean ± SD) ([4]; 3 mM resveratrol): −0.17 ± 0.24 Diopter
- Diopter, right myopic eye (mean ± SD) ([4]; 3 mM resveratrol): −2.42 ± 1.30 Diopter
- Diopter, left eye (mean ± SD) ([4]; 30 mM resveratrol): −0.63 ± 0.41 Diopter
- Diopter, right myopic eye (mean ± SD) ([4]; 30 mM resveratrol): −2.46 ± 0.65 Diopter
- Diopter, left eye (mean ± SD) ([4]; 100 mM resveratrol): −0.25 ± 1.53 Diopter
- Diopter, right myopic eye (mean ± SD) ([4]; 100 mM resveratrol): −1.13 ± 1.47 Diopter
- Inhibition of myopia, comparison of concentrations ([4]; 100 mM vs 3 mM and 30 mM): most effective
- Expression of MCP-1 [5]: decreasing

Compound: lipopolysaccharide [LPS]
- Refractive power, BL: left eye before treatment (Syrian hamster): 12.28 ± 0.97 D
- Refractive power, BR: right eye before treatment (Syrian hamster): 12.25 ± 0.57 D
- Refractive power, FL: left eye after treatment (Syrian hamster): 8.33±0.96 D
- Refractive power, FR: right eye after treatment (Syrian hamster): 8.56±0.42 D
- Refractive error FL-BL (Syrian hamster): −3.95 ± 0.97 D
- Refractive error FR-BR (Syrian hamster): −3.69 ± 0.57 D
- Chrm 1 gene expression level (Sclera fibroblast): 1.49 ± 0.18
- Chrm 2 gene expression level (Sclera fibroblast): 1.48 ± 0.17
- Chrm 3 gene expression level (Sclera fibroblast): 1.58 ± 0.15
- Chrm 4 gene expression level (Sclera fibroblast): 1.07 ± 0.23
- Chrm5 gene expression level (Sclera fibroblast): 0.93 ± 0.15
- Fos gene expression level (Sclera fibroblast): 1.00 ± 0.11
- IL1b gene expression level (Sclera fibroblast): 2.84 ± 0.21
- IL10 gene expression level (Sclera fibroblast): 0.56 ± 0.19
- IL-6 gene expression level (Sclera fibroblast): 3.02 ± 0.16
- MMP2 gene expression level (Sclera fibroblast): 1.79 ± 0.17
- NFkB gene expression level (Sclera fibroblast): 4.50 ± 0.27
- Tgfb1 gene expression level (Sclera fibroblast): 2.15 ± 0.23
- Tnfa gene expression level (Sclera fibroblast): 1.49 ± 0.15
- Myopia in the non-MFD eye [6]: induced
- Refractive power, BL: left eye before MFD [6]: 11.92 ± 0.56 D
- Refractive power, BR: right eye before MFD [6]: 12.30 ± 0.48 D
- Refractive error FR-BR [6]: −5.9 ± 0.54 D
- Refractive error FL-BL [6]: −4.13 ± 0.9 D
- c-Fos and NF-κB expression [7]: stimulated
- IL-10 and TNF-α levels [7]: increased
- MMP2 and TGF-β expression [7]: upregulation
- TGF-β and MMP2 expression [7]: upregulation
- Chrm 1 gene expression level (Retinal cell (R28)): 1.39 ± 0.13
- Chrm 2 gene expression level (Retinal cell (R28)): 0.45 ± 0.23
- Chrm 3 gene expression level (Retinal cell (R28)): 1.27 ± 0.2
- Chrm 4 gene expression level (Retinal cell (R28)): 0.94 ± 0.15
- Chrm5 gene expression level (Retinal cell (R28)): 0.75 ± 0.21
- Fos gene expression level (Retinal cell (R28)): 1.39 ± 0.11
- IL1b gene expression level (Retinal cell (R28)): 4.3 ± 0.25
- IL10 gene expression level (Retinal cell (R28)): 0.56 ± 0.19
- IL-6 gene expression level (Retinal cell (R28)): 2.63 ± 0.15
- MMP2 gene expression level (Retinal cell (R28)): 1.32 ± 0.13
- NFkB gene expression level (Retinal cell (R28)): 1.13 ± 0.11
- Tgfb1 gene expression level (Retinal cell (R28)): 1.18 ± 0.12
- Tnfa gene expression level (Retinal cell (R28)): 1.56 ± 0.17
- Refractive power, FL: left eye after MFD [8]: 7.79±0.88 D
- Refractive power, FR: right eye after MFD (occluded eye) [8]: 6.44±0.18 D

Compound: peptidoglycan [PGN]
- Refractive power, BL: left eye before treatment (Syrian hamster): 12.22 ± 0.35 D
- Refractive power, BR: right eye before treatment (Syrian hamster): 12.17 ± 1.04 D
- Refractive power, FL: left eye after treatment (Syrian hamster): 8.67±0.63 D
- Refractive power, FR: right eye after treatment (Syrian hamster): 9.14±1.21 D
- Refractive error FL-BL (Syrian hamster): −3.55 ± 0.35 D
- Refractive error FR-BR (Syrian hamster): −3.03 ± 1.04 D
- Myopia in the non-MFD eye [6]: induced
- Refractive power, BL: left eye before MFD [6]: 11.73 ± 0.25 D
- Refractive power, BR: right eye before MFD [6]: 11.48 ± 0.49 D
- Refractive error FR-BR [6]: −4.90 ± 0.83 D
- Refractive error FL-BL [6]: −5.03 ± 0.43 D
- c-Fos and NF-κB expression [7]: stimulated
- IL-10 and TNF-α levels [7]: increased
- MMP2 and TGF-β expression [7]: upregulation
- TGF-β and MMP2 expression [7]: upregulation
- Refractive power, FL: left eye after MFD [8]: 6.78±0.63 D
- Refractive power, FR: right eye after MFD (occluded eye) [8]: 6.47±0.39 D
